According to patent US20260076372A1, “SPRAYABLE ANTIFUNGAL COMPOSITION FOR USE IN THE FIELD OF AGRICULTURE, AND ASSOCIATED METHOD AND USE” (GAIAGO, priority 2022, published 2026):
Converted amounts (≈) assume the structure as drawn. “And” between values parts separate entries of the source, which are not always exact repeats. Identical values can stand only once.

Columns and labels:
[1] = system: Pythium ultimum; assay: in vitro test on P. ultimum; settings: for EC50: Globisporangium ultimum, read-out: EC50 (μg/ml or ppm); for EC95 (μg/ml or ppm): P. ultimum, Table 14
Method: The evaluations were performed with a 96-well micro-titration test to evaluate the in vitro fungicidal activity of each solution.
Three repetitions (wells) were carried out. The value of the concentration making it possible to inhibit the growth of each pathogen (EC50) to 50% was determined using the optical density measurement.

[2] = system: Septoria tritici (Zymoseptoria tritici); assay: in vitro 96-well micro-titration test on Septoria tritici / Zymoseptoria tritici; format: cell-based; settings: for EC50: Zymoseptoria tritici, S. tritici, Table 12, read-out: EC50 (μg/ml or ppm)
[3] = system: Fusarium graminearum; assay: microbe, parasite or virus in culture; format: cell-based; settings: for EC95 (μg/ml or ppm) / EC50: Fusarium graminearum; for EC95 (μg/ml or ppm): Table 9; for EC50: read-out: EC50 (μg/ml or ppm)
[4] = system: Alternaria solani; assay: in vitro 96-well micro-titration test on Alternaria solani spores; format: cell-based
[5] = system: Plasmopara viticola; assay: in vitro antifungal action of single ingredients on Plasmopara viticola; format: cell-based
From the text: In Vitro Results Showing the Syngergistic Action of Yucca Juice with the Other Compounds of the Composition According to the Invention on A. solani, Z. tritici, and Plasmopara viticola,
The following tables show in vitro the synergistic antifungal action between yucca juice and the other compounds of the composition of the invention on various pathogens. The concentrations given are as a mass %. The solutions tested as aqueous solutions.
Mo denotes sodium molybdate, Bo denotes boron ethanolamine.

C[C@@H]1CC[C@@]2(OC1)O[C@H]1C[C@H]3[C@@H]4CC[C@@H]5C[C@@H](O)CC[C@]5(C)[C@H]4CC[C@]3(C)[C@H]1[C@@H]2C [smilagenin, (25R)-5beta-Spirostan-3beta-ol]
inhibition of P. ultimum ([1]; 0.0064 μg/ml or ppm): −6.70% | inhibition of P. ultimum ([1]; 0.032 μg/ml or ppm): 0.00% | inhibition of P. ultimum ([1]; 0.16 μg/ml or ppm): −0.60% | inhibition of P. ultimum ([1]; 0.8 μg/ml or ppm): 0.10% | inhibition of P. ultimum ([1]; 4 μg/ml or ppm): −3.40% | inhibition of P. ultimum ([1]; 20 μg/ml or ppm): −0.10% | inhibition of P. ultimum ([1]; 100 μg/ml or ppm): 0.00% | EC50 [1]: > 100 µg/mL | EC95 (μg/ml or ppm) [1]: >100 μg/ml or ppm | % inhibition of pathogen growth (S. tritici) ([2]; 0.0064 μg/ml or ppm): −3.90% | % inhibition of pathogen growth (S. tritici) ([2]; 0.032 μg/ml or ppm): −2.30% | % inhibition of pathogen growth (S. tritici) ([2]; 0.16 μg/ml or ppm): −1.90% | % inhibition of pathogen growth (S. tritici) ([2]; 0.8 μg/ml or ppm): −9.50% | % inhibition of pathogen growth (S. tritici) ([2]; 4 μg/ml or ppm): 0.00% | % inhibition of pathogen growth (S. tritici) ([2]; 20 μg/ml or ppm): −2.10% | % inhibition of pathogen growth (S. tritici) ([2]; 100 μg/ml or ppm): −0.20% | EC50 [2]: > 100 µg/mL | inhibition of Fusarium graminearum ([3]; 0.0064 μg/ml or ppm): 5.00% | inhibition of Fusarium graminearum ([3]; 0.032 μg/ml or ppm): −2.60% | inhibition of Fusarium graminearum ([3]; 0.16 μg/ml or ppm): −0.80% | inhibition of Fusarium graminearum ([3]; 0.8 μg/ml or ppm): 2.40% | inhibition of Fusarium graminearum ([3]; 4 μg/ml or ppm): 1.50% | inhibition of Fusarium graminearum ([3]; 20 μg/ml or ppm): −8.70% | inhibition of Fusarium graminearum ([3]; 100 μg/ml or ppm): 2.00% | EC95 (μg/ml or ppm) [3]: >100 μg/ml or ppm | EC50 [3]: > 100 µg/mL | inhibition (%) of A. solani growth ([4]; 0.0064 μg/ml or ppm in water): 7.9% | inhibition (%) of A. solani growth ([4]; 0.032 μg/ml or ppm in water): 10.1% | inhibition (%) of A. solani growth ([4]; 0.16 μg/ml or ppm in water): 19.6% | inhibition (%) of A. solani growth ([4]; 0.8 μg/ml or ppm in water): 22.6% | inhibition (%) of A. solani growth ([4]; 4 μg/ml or ppm in water): 28.0% | inhibition (%) of A. solani growth ([4]; 20 μg/ml or ppm in water): 29.3% | inhibition (%) of A. solani growth ([4]; 40 μg/ml or ppm in water): 30%

Oc1ccc(/C=C/c2cc(O)cc(O)c2)cc1 [resveratrol, 5-[(E)-2-(4-hydroxyphenyl)-ethenyl]benzene-1,3-diol]
inhibition of P. ultimum ([1]; 0.0064 μg/ml or ppm): −8.20% | inhibition of P. ultimum ([1]; 0.032 μg/ml or ppm): −0.30% | inhibition of P. ultimum ([1]; 0.16 μg/ml or ppm): 0.00% | inhibition of P. ultimum ([1]; 0.8 μg/ml or ppm): −1.70% | inhibition of P. ultimum ([1]; 4 μg/ml or ppm): 23.30% | inhibition of P. ultimum ([1]; 20 μg/ml or ppm): 72.40% | inhibition of P. ultimum ([1]; 100 μg/ml or ppm): 100% and 101.30% | EC50 [1]: 8.89 µg/mL (≈ 38.9 µM) | EC95 (μg/ml or ppm) [1]: 73.85 μg/ml or ppm | % inhibition of pathogen growth (S. tritici) ([2]; 0.0064 μg/ml or ppm): 0.00% | % inhibition of pathogen growth (S. tritici) ([2]; 0.032 μg/ml or ppm): −0.40% | % inhibition of pathogen growth (S. tritici) ([2]; 0.16 μg/ml or ppm): −0.40% | % inhibition of pathogen growth (S. tritici) ([2]; 0.8 μg/ml or ppm): 0.60% | % inhibition of pathogen growth (S. tritici) ([2]; 4 μg/ml or ppm): −2.60% | % inhibition of pathogen growth (S. tritici) ([2]; 20 μg/ml or ppm): −2.00% | % inhibition of pathogen growth (S. tritici) ([2]; 100 μg/ml or ppm): 104.90% | EC50 [2]: 72 µg/mL (≈ 315 µM) | concentration showing efficacy against Septoria tritici ([2]; in vitro): 100 ppm | inhibition of Fusarium graminearum ([3]; 0.0064 μg/ml or ppm): 0.30% | inhibition of Fusarium graminearum ([3]; 0.032 μg/ml or ppm): −2.90% | inhibition of Fusarium graminearum ([3]; 0.16 μg/ml or ppm): −3.90% | inhibition of Fusarium graminearum ([3]; 0.8 μg/ml or ppm): −1.60% | inhibition of Fusarium graminearum ([3]; 4 μg/ml or ppm): −3.80% | inhibition of Fusarium graminearum ([3]; 20 μg/ml or ppm): 18.20% | inhibition of Fusarium graminearum ([3]; 100 μg/ml or ppm): 53.30% | inhibition of Fusarium graminearum ([3]; 100 μg/ml or ppm, listed as Resveratrol (trans)): more than 50% | EC95 (μg/ml or ppm) [3]: >100 μg/ml or ppm | EC50 [3]: 29.5 µg/mL (≈ 129 µM) | inhibition (%) of A. solani growth ([4]; 0.0064 μg/ml or ppm in water): 6.20% | inhibition (%) of A. solani growth ([4]; 0.032 μg/ml or ppm in water): 13.60% | inhibition (%) of A. solani growth ([4]; 0.16 μg/ml or ppm in water): 13.70% | inhibition (%) of A. solani growth ([4]; 0.8 μg/ml or ppm in water): 16.10% | inhibition (%) of A. solani growth ([4]; 4 μg/ml or ppm in water): 11.20% | inhibition (%) of A. solani growth ([4]; 20 μg/ml or ppm in water): 28.70% | inhibition (%) of A. solani growth ([4]; 100 μg/ml or ppm in water): 54.7%

O=S(=O)([O-])[O-].[Mn+2] [Mn 7%]
inhibition of Z. tritici, ingredient alone in water ([2]; Concentration 0.05%): 11.3% | inhibition of Z. tritici, ingredient alone in water ([2]; Concentration 0.50%): 27.6% | inhibition of Z. tritici, ingredient alone in water ([2]; Concentration 1.00%): 33.5% | inhibition of Z. tritici, ingredient alone in water ([2]; Concentration 2.00%): 28.7% | inhibition of Z. tritici, ingredient alone in water ([2]; Concentration 3.00%): 28.0% | inhibition of Z. tritici, ingredient alone in water ([2]; Concentration 6.00%): 29.0% | inhibition of Z. tritici, ingredient alone in water ([2]; Concentration 10.00%): 29.5% | EC95 (%) ([2]; Z. tritici, Table 23, ingredient alone in water): >10% | in vitro activity against Plasmopara viticola, ingredient alone in water ([5]; Concentration 0.05%): 25.41% | in vitro activity against Plasmopara viticola, ingredient alone in water ([5]; Concentration 0.50%): 89.41% | in vitro activity against Plasmopara viticola, ingredient alone in water ([5]; Concentration 1.00%): 94.78% | in vitro activity against Plasmopara viticola, ingredient alone in water ([5]; Concentration 2.00%): 97.25% | in vitro activity against Plasmopara viticola, ingredient alone in water ([5]; Concentration 3.00%): 97.53% | in vitro activity against Plasmopara viticola, ingredient alone in water ([5]; Concentration 6.00%): 97.69% | in vitro activity against Plasmopara viticola, ingredient alone in water ([5]; Concentration 10.00%): 97.64% | EC95 (%) ([4]; A. solani, Table 22, ingredient alone in water): 6.4% | inhibition of A. solani, ingredient alone in water ([4]; Concentration 0.05% mass of the stated aqueous solution): 0.0% | inhibition of A. solani, ingredient alone in water ([4]; Concentration 0.50%): 16.9% | inhibition of A. solani, ingredient alone in water ([4]; Concentration 1.00%): 29.6% | inhibition of A. solani, ingredient alone in water ([4]; Concentration 2.00%): 73.2% | inhibition of A. solani, ingredient alone in water ([4]; Concentration 3.00%): 89.4% | inhibition of A. solani, ingredient alone in water ([4]; Concentration 6.00%): 94.5% | inhibition of A. solani, ingredient alone in water ([4]; Concentration 10.00%): 101.1%
